Experimental data as given in US5225607A, “Insecticidal ethers” (Imperial Chemical Industries PLC, priority 1985, dated 1993).

Assays:
Type in all cases: in vivo
Diabrotica balteata = test: Insecticidal test, Diabrotica balteata (rootworm larvae), residual; conditions: 72 h, 500 ppm, filter paper/maize seed, 3 days, read-out: grading of mortality, DB
In short: (§1)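 Product applied at 500, 250 or 100 ppm as acetone solution diluted in water with 0.01% Lissapol NX wetting agent, onto pests and/or their host plant or food medium. Mortality or knockdown scored 1–3 days after treatment and graded A (80–100%; 70–100% for S. exigua), B (50–79%; 50–69% for S. exigua) or C (<50%).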

Musca domestica [1] = test: Knockdown test, Musca domestica (houseflies - adults); conditions: 500 ppm, cotton wool/sugar, 4 hours, read-out: grading of knockdown, MD/KD
In short: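 Adult houseflies were exposed to the compound as aqueous acetone preparations with 0.01% Lissapol NX wetting agent, at 500, 250 or 100 ppm. Knockdown was graded A (80–100%), B (50–79%) or C (<50%).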

Spodoptera exigua = test: Insecticidal test, Spodoptera exigua (lesser armyworm), residual; conditions: 72 h, 500 ppm, cotton leaf, 3 days, read-out: grading of mortality, SE
Method: The activity of the Product was determined using a variety of insect and acarine pests. The Product was used in the form of liquid preparations containing 500, 250 or 100 parts per million (ppm) by weight of the Product. The preparations were made by dissolving the Product in acetone and diluting the solutions with water containing 0.01% by weight of a wetting agent sold under the trade name "LISSAPOL" NX until the liquid preparations contained the required concentratio of the Product. "Lissapol" is a Registered Trade Mark.
The test procedure adopted with regard to each pest was basically the same and comprised supporting a number of the pests on a medium which was usually a host plant or a foodstuff on which the pests feed, and treating either or both the pests and the medium with the preparations. The mortality of the pests was then assessed at periods usually varying from one to three days after the treatment.
The results of the tests are given in Table IV for each of the Products, at the rate in parts per million given in the second column as a grading of mortality designated as A, B or C wherein A indicates 80-100% mortality or knockdown (70-100% in the case of Spodoptera exigua), B indicates 50-79% mortality or knockdown (50-69% in the case of Spodoptera exigua) and C indicates less than 50% mortality or knockdown.
In Table IV the pest organism used is designated by a letter code and the pest species, the support medium or food, and the type and duration of test is given in Table III.

Myzus persicae = test: Insecticidal test, Myzus persicae (aphids), contact; conditions: 72 h, 500 ppm, Chinese Cabbage leaf, 3 days, read-out: grading of mortality, MP
In short: as §1

Blattella germanica = test: Insecticidal test, Blattella germanica (cockroach nymphs), residual; conditions: 72 h, 500 ppm, plastic pot, 3 days, read-out: grading of mortality, BG
In short: as §1

Musca domestica [2] = test: Insecticidal test, Musca domestica (houseflies - adults), contact; conditions: 24 h, 500 ppm, cotton wool/sugar, 1 day, read-out: grading of mortality, MD
In short: as §1

Tetranychus urticae = test: Insecticidal/acaricidal test, Tetranychus urticae (spider mites - adult), contact; conditions: 72 h, 500 ppm, French bean leaf, 3 days, read-out: grading of mortality, TU
In short: as §1

Heliothis virescens = test: whole plant or invertebrate; conditions: in Gossypium hirsutum, 72 h, read-out: grading of mortality, HV
In short: as §1

Nilaparvata lugens = test: Insecticidal test, Nilaparvata lugens (brown planthopper), contact; conditions: 72 h, 500 ppm, Cabbage leaf, 3 days, read-out: grading of mortality, NL
In short: as §1

SMILES	mortality at 500 ppm (Diabrotica balteata) [%]	pest or weed control at 500 ppm (Musca domestica [1]) [%]	mortality at 500 ppm (Spodoptera exigua) [%]	mortality at 500 ppm (Myzus persicae) [%]	mortality at 500 ppm (Blattella germanica) [%]	mortality at 500 ppm (Musca domestica [2]) [%]	mortality at 500 ppm (Tetranychus urticae) [%]	mortality at 500 ppm (Heliothis virescens) [%]	mortality at 500 ppm (Nilaparvata lugens) [%]
CCOc1c(F)cc(C(COCc2cccc(Oc3ccccc3)c2)C(F)(F)F)cc1F (racemic) [Compound 163, (RS)-1,1,1-trifluoro-2-(3,5-difluoro-4-ethoxyphenyl)-3-(3-phenoxybenzyloxy)propane]	80 to 100	80 to 100	70 to 100	80 to 100	80 to 100	80 to 100	80 to 100	80 to 100	80 to 100
CCOc1ccc(C(COC(c2cccc(Oc3ccccc3)c2)C(F)(F)F)C(F)(F)F)cc1 (racemic) [Compound 264]	< 50	< 50	70 to 100	< 50	< 50	< 50	50 to 79	< 50	–
Cc1ccc(C(COCc2cccc(Oc3ccccc3)c2)C(F)(F)F)cc1 (centres unmarked) [Compound 22, 1,1,1-Trifluoro-2-(4-methylphenyl)-3-(3-phenoxybenzyloxy)propane]	80 to 100	80 to 100	70 to 100	–	80 to 100	80 to 100	< 50	50 to 79	80 to 100
CCOc1ccc(C(O)(COCc2cccc(-c3ccccc3)c2C)C(F)(F)F)cc1 (centres unmarked) [Compound 142, 1,1,1-Trifluoro-2-(4-ethoxyphenyl)-3-(2-methyl-3-phenylbenzyloxy)propan-2-ol]	< 50	< 50	–	< 50	< 50	< 50	80 to 100	80 to 100	< 50
Fc1ccc(COC=C(c2ccc(Cl)cc2)C(F)(F)F)cc1Oc1ccccc1 [Compound 458, 1,1,1-trifluoro-2-(4-chlorophenyl)-3-(3-phenoxy-4-fluorobenzyloxy)prop-2-ene]	80 to 100	80 to 100	–	< 50	50 to 79	80 to 100	< 50	80 to 100	80 to 100
Fc1ccc(COC=C(c2ccc3c(c2)CCC3)C(F)(F)F)cc1Oc1ccccc1 [Compound 459, 1,1,1-trifluoro-2-(5-indanyl)-3-(3-phenoxy-4-fluorobenzyloxy)prop-2-ene]	80 to 100	50 to 79	–	< 50	< 50	< 50	80 to 100	< 50	< 50
CCCc1ccc(C(=COCc2ccc(F)c(Oc3ccccc3)c2)C(F)(F)F)cc1 [Compound 460, 1,1,1-trifluoro-2-(4-n-propylphenyl)-3-(3-phenoxy-4-fluorobenzyloxy)prop-2-ene]	50 to 79	< 50	–	< 50	80 to 100	< 50	< 50	< 50	50 to 79
FC(F)(F)Oc1ccc(C(=COCc2cccc(Oc3ccccc3)c2)C(F)(F)F)cc1 [Compound 463, 1,1,1-trifluoro-2-(4-trifluoromethoxyphenyl)-3-(3-phenoxybenzyloxy)prop-2-ene]	80 to 100	< 50	–	80 to 100	80 to 100	< 50	< 50	80 to 100	< 50
